{"source": "BigSolDB 2.1"}
{"smiles": "O=Cc1cccc([N+](=O)[O-])c1", "values": [{"measurement": "solubility (mole fraction)", "setting": "in DMF, 273.15 K", "result": 0.324}, {"measurement": "solubility (mole fraction)", "setting": "in DMF, 275.65 K", "result": 0.347}, {"measurement": "solubility (mole fraction)", "setting": "in DMF, 278.15 K", "result": 0.368}, {"measurement": "solubility (mole fraction)", "setting": "in DMF, 280.65 K", "result": 0.393}, {"measurement": "solubility (mole fraction)", "setting": "in DMF, 283.15 K", "result": 0.419}, {"measurement": "solubility (mole fraction)", "setting": "in DMF, 285.65 K", "result": 0.447}, {"measurement": "solubility (mole fraction)", "setting": "in DMF, 288.15 K", "result": 0.472}, {"measurement": "solubility (mole fraction)", "setting": "in DMF, 290.65 K", "result": 0.503}, {"measurement": "solubility (mole fraction)", "setting": "in DMF, 293.15 K", "result": 0.528}, {"measurement": "solubility (mole fraction)", "setting": "in DMF, 295.65 K", "result": 0.561}, {"measurement": "solubility (mole fraction)", "setting": "in DMF, 298.15 K", "result": 0.594}, {"measurement": "solubility (mole fraction)", "setting": "in DMF, 300.65 K", "result": 0.627}, {"measurement": "solubility (mole fraction)", "setting": "in DMF, 303.15 K", "result": 0.66}, {"measurement": "solubility (mole fraction)", "setting": "in acetic acid, 290.65 K", "result": 0.159}, {"measurement": "solubility (mole fraction)", "setting": "in acetic acid, 293.15 K", "result": 0.182}, {"measurement": "solubility (mole fraction)", "setting": "in acetic acid, 295.65 K", "result": 0.206}, {"measurement": "solubility (mole fraction)", "setting": "in acetic acid, 298.15 K", "result": 0.235}, {"measurement": "solubility (mole fraction)", "setting": "in acetic acid, 300.65 K", "result": 0.267}, {"measurement": "solubility (mole fraction)", "setting": "in acetic acid, 303.15 K", "result": 0.304}, {"measurement": "solubility (mole fraction)", "setting": "in acetone, 273.15 K", "result": 0.164}, {"measurement": "solubility (mole fraction)", "setting": "in acetone, 275.65 K", "result": 0.184}, {"measurement": "solubility (mole fraction)", "setting": "in acetone, 278.15 K", "result": 0.206}, {"measurement": "solubility (mole fraction)", "setting": "in acetone, 280.65 K", "result": 0.231}, {"measurement": "solubility (mole fraction)", "setting": "in acetone, 283.15 K", "result": 0.258}, {"measurement": "solubility (mole fraction)", "setting": "in acetone, 285.65 K", "result": 0.289}, {"measurement": "solubility (mole fraction)", "setting": "in acetone, 288.15 K", "result": 0.322}, {"measurement": "solubility (mole fraction)", "setting": "in acetone, 290.65 K", "result": 0.359}, {"measurement": "solubility (mole fraction)", "setting": "in acetone, 293.15 K", "result": 0.401}, {"measurement": "solubility (mole fraction)", "setting": "in acetone, 295.65 K", "result": 0.445}, {"measurement": "solubility (mole fraction)", "setting": "in acetone, 298.15 K", "result": 0.487}, {"measurement": "solubility (mole fraction)", "setting": "in acetone, 300.65 K", "result": 0.534}, {"measurement": "solubility (mole fraction)", "setting": "in acetone, 303.15 K", "result": 0.585}, {"measurement": "solubility (mole fraction)", "setting": "in acetonitrile, 273.15 K", "result": 0.165}, {"measurement": "solubility (mole fraction)", "setting": "in acetonitrile, 275.65 K", "result": 0.183}, {"measurement": "solubility (mole fraction)", "setting": "in acetonitrile, 278.15 K", "result": 0.204}, {"measurement": "solubility (mole fraction)", "setting": "in acetonitrile, 280.65 K", "result": 0.226}, {"measurement": "solubility (mole fraction)", "setting": "in acetonitrile, 283.15 K", "result": 0.251}, {"measurement": "solubility (mole fraction)", "setting": "in acetonitrile, 285.65 K", "result": 0.277}, {"measurement": "solubility (mole fraction)", "setting": "in acetonitrile, 288.15 K", "result": 0.307}, {"measurement": "solubility (mole fraction)", "setting": "in acetonitrile, 290.65 K", "result": 0.338}, {"measurement": "solubility (mole fraction)", "setting": "in acetonitrile, 293.15 K", "result": 0.371}, {"measurement": "solubility (mole fraction)", "setting": "in acetonitrile, 295.65 K", "result": 0.409}, {"measurement": "solubility (mole fraction)", "setting": "in acetonitrile, 298.15 K", "result": 0.449}, {"measurement": "solubility (mole fraction)", "setting": "in acetonitrile, 300.65 K", "result": 0.49}, {"measurement": "solubility (mole fraction)", "setting": "in acetonitrile, 303.15 K", "result": 0.532}, {"measurement": "solubility (mole fraction)", "setting": "in cyclohexane, 283.15 K", "result": 0.00147}, {"measurement": "solubility (mole fraction)", "setting": "in cyclohexane, 285.65 K", "result": 0.00175}, {"measurement": "solubility (mole fraction)", "setting": "in cyclohexane, 288.15 K", "result": 0.00204}, {"measurement": "solubility (mole fraction)", "setting": "in cyclohexane, 290.65 K", "result": 0.0024}, {"measurement": "solubility (mole fraction)", "setting": "in cyclohexane, 293.15 K", "result": 0.00283}, {"measurement": "solubility (mole fraction)", "setting": "in cyclohexane, 295.65 K", "result": 0.00334}, {"measurement": "solubility (mole fraction)", "setting": "in cyclohexane, 298.15 K", "result": 0.00394}, {"measurement": "solubility (mole fraction)", "setting": "in cyclohexane, 300.65 K", "result": 0.00456}, {"measurement": "solubility (mole fraction)", "setting": "in cyclohexane, 303.15 K", "result": 0.0053}, {"measurement": "solubility (mole fraction)", "setting": "in ethanol, 273.15 K", "result": 0.0358}, {"measurement": "solubility (mole fraction)", "setting": "in ethanol, 275.65 K", "result": 0.0416}, {"measurement": "solubility (mole fraction)", "setting": "in ethanol, 278.15 K", "result": 0.048}, {"measurement": "solubility (mole fraction)", "setting": "in ethanol, 280.65 K", "result": 0.0555}, {"measurement": "solubility (mole fraction)", "setting": "in ethanol, 283.15 K", "result": 0.0637}, {"measurement": "solubility (mole fraction)", "setting": "in ethanol, 285.65 K", "result": 0.0736}, {"measurement": "solubility (mole fraction)", "setting": "in ethanol, 288.15 K", "result": 0.0844}, {"measurement": "solubility (mole fraction)", "setting": "in ethanol, 290.65 K", "result": 0.0959}, {"measurement": "solubility (mole fraction)", "setting": "in ethanol, 293.15 K", "result": 0.109}, {"measurement": "solubility (mole fraction)", "setting": "in ethanol, 295.65 K", "result": 0.125}, {"measurement": "solubility (mole fraction)", "setting": "in ethanol, 298.15 K", "result": 0.141}, {"measurement": "solubility (mole fraction)", "setting": "in ethanol, 300.65 K", "result": 0.161}, {"measurement": "solubility (mole fraction)", "setting": "in ethanol, 303.15 K", "result": 0.183}, {"measurement": "solubility (mole fraction)", "setting": "in ethyl acetate, 273.15 K", "result": 0.146}, {"measurement": "solubility (mole fraction)", "setting": "in ethyl acetate, 275.65 K", "result": 0.164}, {"measurement": "solubility (mole fraction)", "setting": "in ethyl acetate, 278.15 K", "result": 0.185}, {"measurement": "solubility (mole fraction)", "setting": "in ethyl acetate, 280.65 K", "result": 0.206}, {"measurement": "solubility (mole fraction)", "setting": "in ethyl acetate, 283.15 K", "result": 0.229}]}
